# Literature values in patent US20220362410A1, “PREFERRED ANTERIOR CAPSULOTOMY LOCATION PROVIDED BY TRYPAN BLUE OPTHALMIC SOLUTION” (Excel-Lens, Inc., priority 2018, published 2022).
# Tested on: cell toxicity
# Conditions: concentrations above the range 0.2 to 0.45%
structure (smiles),measurement,value
Cc1cc(-c2ccc(/N=N/c3c(S(=O)(=O)O)cc4cc(S(=O)(=O)O)cc(N)c4c3O)c(C)c2)ccc1/N=N/c1c(S(=O)(=O)O)cc2cc(S(=O)(=O)O)cc(N)c2c1O [Trypan Blue],cell toxicity,cell toxicity was noted
